Here are results for 62 compounds from patent US20230123334A1, “AMINO LIPID COMPOUND, PREPARATION METHOD THEREFOR, AND APPLICATION THEREOF” (SHENZHEN SHENXIN BIOTECHNOLOGY CO., LTD., priority 2020, published 2023).

The subject of the assay is HEK293 cells. In words: Preliminary screening as mRNA vectors, EGFP mRNA transfection of HEK293 cells. The assay is classed as cell-based. As to conditions: EGFP mRNA 50 ng per well, 96-well plates; percentage of GFP fluorescent cells relative to total number of cells (Hoechst). In outline: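 HEK293 cells in DMEM plus 10% FBS transfected in 96-well format with 50 ng EGFP mRNA per well; Lipofectamine2000 served as positive control. Read-out is the percentage of GFP-fluorescent cells among total cells, counted by Hoechst nuclear stain.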
Take `CCCCCCCCCCCCCCSc1nc(NCCCCCCCCCCC)nc(NCCCN(C)C)n1` [Compound D6S14N11]: the “Absolute mRNA transfection efficiency in HEK293 cells” value (“Absolute mRNA transfection efficiency” for short) is reported as 20.1%.

Turning to `CCCCCCCCCCCCCCSc1nc(NCCCCCCCCCCCC)nc(NCCCN(C)C)n1` [Compound D6S14N12], the “Absolute mRNA transfection efficiency” value came out at 17.0%.

For `CCCCCCCCCCCCCCSc1nc(NCCCCCCCCCCCCC)nc(NCCCN(C)C)n1` [Compound D6S14N13], the “Absolute mRNA transfection efficiency” value turned out to be 5.2%.

Regarding `CCCCCCCCCCCCCCCNc1nc(NCCCN(C)C)nc(SCCCCCCCCCCCCCC)n1` [Compound D6S14N15], the “Absolute mRNA transfection efficiency” value was 0.1%.

`CCCCCCCCCCCCCCCCNc1nc(NCCCN(C)C)nc(SCCCCCCCCCCCCCC)n1` [Compound D6S14N16]: the “Absolute mRNA transfection efficiency” value was 0.5%.

For `CCCCCCCCCCCCCCCCCCNc1nc(NCCCN(C)C)nc(SCCCCCCCCCCCCCC)n1` [Compound D6S14N18], the “Absolute mRNA transfection efficiency” value was 0.7%.

As to `CCCCCCCCCCCCCCCSc1nc(NCCCCCC)nc(NCCCN(C)C)n1` [Compound D6S15N6], the “Absolute mRNA transfection efficiency” value is listed as 37.4%.

For the compound `CCCCCCCCCCCCCCCSc1nc(NCCCCCCC)nc(NCCCN(C)C)n1` [Compound D6S15N7], the “Absolute mRNA transfection efficiency” value is 46.1%.

For the compound `CCCCCCCCCCCCCCCSc1nc(NCCCCCCCC)nc(NCCCN(C)C)n1` [Compound D6S15N8], the “Absolute mRNA transfection efficiency” value is listed as 6.9%.

As for `CCCCCCCCCCCCCCCSc1nc(NCCCCCCCCC)nc(NCCCN(C)C)n1` [Compound D6S15N9], the “Absolute mRNA transfection efficiency” value is recorded as 61.9%.

Turning to `CCCCCCCCCCCCCCCSc1nc(NCCCCCCCCCCC)nc(NCCCN(C)C)n1` [Compound D6S15N11], the “Absolute mRNA transfection efficiency” value came out at 7.8%.

Consider `CCCCCCCCCCCCCCCSc1nc(NCCCCCCCCCCCC)nc(NCCCN(C)C)n1` [Compound D6S15N12], for which the “Absolute mRNA transfection efficiency” value turned out to be 9.6%.

`CCCCCCCCCCCCCCCSc1nc(NCCCCCCCCCCCCC)nc(NCCCN(C)C)n1` [Compound D6S15N13]: the “Absolute mRNA transfection efficiency” value came out at 0.8%.

`CCCCCCCCCCCCCCCNc1nc(NCCCN(C)C)nc(SCCCCCCCCCCCCCCC)n1` [Compound D6S15N15]: the “Absolute mRNA transfection efficiency” value was 0.8%.

As to `CCCCCCCCCCCCCCCCNc1nc(NCCCN(C)C)nc(SCCCCCCCCCCCCCCC)n1` [Compound D6S15N16], the “Absolute mRNA transfection efficiency” value was determined as 0.2%.

As to `CCCCCCCCCCCCCCCCCCNc1nc(NCCCN(C)C)nc(SCCCCCCCCCCCCCCC)n1` [Compound D6S15N18], the “Absolute mRNA transfection efficiency” value amounted to 1.9%.

For the compound `CCCCCCCCCCCCCCCCSc1nc(NCCCCCC)nc(NCCCN(C)C)n1` [Compound D6S16N6], the “Absolute mRNA transfection efficiency” value is given as 96.4%.

For the compound `CCCCCCCCCCCCCCCCSc1nc(NCCCCCCC)nc(NCCCN(C)C)n1` [Compound D6S16N7], the “Absolute mRNA transfection efficiency” value is listed as 88.3%.

With `CCCCCCCCCCCCCCCCSc1nc(NCCCCCCCC)nc(NCCCN(C)C)n1` [Compound D6S16N8], the “Absolute mRNA transfection efficiency” value was 91.5%.

Consider `CCCCCCCCCCCCCCCCSc1nc(NCCCCCCCCC)nc(NCCCN(C)C)n1` [Compound D6S16N9], for which the “Absolute mRNA transfection efficiency” value was determined as 76.1%.

With `CCCCCCCCCCCCCCCCSc1nc(NCCCCCCCCCCC)nc(NCCCN(C)C)n1` [Compound D6S16N11], the “Absolute mRNA transfection efficiency” value was 63.0%.

On to `CCCCCCCCCCCCCCCCSc1nc(NCCCCCCCCCCCC)nc(NCCCN(C)C)n1` [Compound D6S16N12], for which the “Absolute mRNA transfection efficiency” value was determined as 2.0%.

`CCCCCCCCCCCCCCCCSc1nc(NCCCCCCCCCCCCC)nc(NCCCN(C)C)n1` [Compound D6S16N13]: the “Absolute mRNA transfection efficiency” value was found to be 0.5%.

As for `CCCCCCCCCCCCCCCCSc1nc(NCCCCCCCCCCCCCCC)nc(NCCCN(C)C)n1` [Compound D6S16N15], the “Absolute mRNA transfection efficiency” value is given as 0.1%.

Consider `CCCCCCCCCCCCCCCCNc1nc(NCCCN(C)C)nc(SCCCCCCCCCCCCCCCC)n1` [Compound D6S16N16], for which the “Absolute mRNA transfection efficiency” value stood at 0.1%.

`CCCCCCCCCCCCCCCCCCNc1nc(NCCCN(C)C)nc(SCCCCCCCCCCCCCCCC)n1` [Compound D6S16N18]: the “Absolute mRNA transfection efficiency” value amounted to 0.0%.

In the case of `CCCCCCCCCCCCCCCCCCSc1nc(NCCCCCC)nc(NCCCN(C)C)n1` [Compound D6S18N6], the “Absolute mRNA transfection efficiency” value is recorded as 74.8%.

As to `CCCCCCCCCCCCCCCCCCSc1nc(NCCCCCCC)nc(NCCCN(C)C)n1` [Compound D6S18N7], the “Absolute mRNA transfection efficiency” value came to 87.5%.

As for `CCCCCCCCCCCCCCCCCCSc1nc(NCCCCCCCC)nc(NCCCN(C)C)n1` [Compound D6S18N8], the “Absolute mRNA transfection efficiency” value was 74.5%.

As for `CCCCCCCCCCCCCCCCCCSc1nc(NCCCCCCCCC)nc(NCCCN(C)C)n1` [Compound D6S18N9], the “Absolute mRNA transfection efficiency” value was determined as 40.1%.

`CCCCCCCCCCCCCCCCCCSc1nc(NCCCCCCCCCCC)nc(NCCCN(C)C)n1` [Compound D6S18N11]: the “Absolute mRNA transfection efficiency” value was 5.7%.

Turning to `CCCCCCCCCCCCCCCCCCSc1nc(NCCCCCCCCCCCC)nc(NCCCN(C)C)n1` [Compound D6S18N12], the “Absolute mRNA transfection efficiency” value is given as 2.6%.

For the compound `CCCCCCCCCCCCCCCCCCSc1nc(NCCCCCCCCCCCCC)nc(NCCCN(C)C)n1` [Compound D6S18N13], the “Absolute mRNA transfection efficiency” value came out at 1.0%.

On to `CCCCCCCCCCCCCCCCCCSc1nc(NCCCCCCCCCCCCCCC)nc(NCCCN(C)C)n1` [Compound D6S18N15], for which the “Absolute mRNA transfection efficiency” value is reported as 0.0%.

`CCCCCCCCCCCCCCCCCCSc1nc(NCCCCCCCCCCCCCCCC)nc(NCCCN(C)C)n1` [Compound D6S18N16]: the “Absolute mRNA transfection efficiency” value was 0.0%.

For `CCCCCCCCCCCCCCCCCCNc1nc(NCCCN(C)C)nc(SCCCCCCCCCCCCCCCCCC)n1` [Compound D6S18N18], the “Absolute mRNA transfection efficiency” value stood at 0.0%.

Turning to `CCCCCCNc1nc(NCCN(CC)CC)nc(SCCCCCC)n1` [Compound D7S6N6], the “Absolute mRNA transfection efficiency” value turned out to be 1.2%.

Regarding `CCCCCCCNc1nc(NCCN(CC)CC)nc(SCCCCCC)n1` [Compound D7S6N7], the “Absolute mRNA transfection efficiency” value was determined as 0.0%.

Regarding `CCCCCCCCNc1nc(NCCN(CC)CC)nc(SCCCCCC)n1` [Compound D7S6N8], the “Absolute mRNA transfection efficiency” value is given as 3.5%.

As for `CCCCCCCCCNc1nc(NCCN(CC)CC)nc(SCCCCCC)n1` [Compound D7S6N9], the “Absolute mRNA transfection efficiency” value was found to be 2.4%.

On to `CCCCCCCCCCCNc1nc(NCCN(CC)CC)nc(SCCCCCC)n1` [Compound D7S6N11], for which the “Absolute mRNA transfection efficiency” value is reported as 3.8%.

Regarding `CCCCCCCCCCCCNc1nc(NCCN(CC)CC)nc(SCCCCCC)n1` [Compound D7S6N12], the “Absolute mRNA transfection efficiency” value is 1.4%.

For the compound `CCCCCCCCCCCCCNc1nc(NCCN(CC)CC)nc(SCCCCCC)n1` [Compound D7S6N13], the “Absolute mRNA transfection efficiency” value amounted to 2.6%.

As for `CCCCCCCCCCCCCCCNc1nc(NCCN(CC)CC)nc(SCCCCCC)n1` [Compound D7S6N15], the “Absolute mRNA transfection efficiency” value turned out to be 2.2%.

On to `CCCCCCCCCCCCCCCCNc1nc(NCCN(CC)CC)nc(SCCCCCC)n1` [Compound D7S6N16], for which the “Absolute mRNA transfection efficiency” value was determined as 3.0%.

For `CCCCCCCCCCCCCCCCCCNc1nc(NCCN(CC)CC)nc(SCCCCCC)n1` [Compound D7S6N18], the “Absolute mRNA transfection efficiency” value was found to be 4.6%.

For `CCCCCCSc1nc(NCCN(CC)CC)nc(SCCCCCC)n1` [Compound D7S6S6], the “Absolute mRNA transfection efficiency” value is recorded as 19.5%.

Take `CCCCCCCSc1nc(NCCN(CC)CC)nc(SCCCCCC)n1` [Compound D7S6S7]: the “Absolute mRNA transfection efficiency” value stood at 22.9%.

With `CCCCCCCCSc1nc(NCCN(CC)CC)nc(SCCCCCC)n1` [Compound D7S6S8], the “Absolute mRNA transfection efficiency” value was 18.9%.

On to `CCCCCCCCCSc1nc(NCCN(CC)CC)nc(SCCCCCC)n1` [Compound D7S6S9], for which the “Absolute mRNA transfection efficiency” value stood at 4.2%.

`CCCCCCCCCCSc1nc(NCCN(CC)CC)nc(SCCCCCC)n1` [Compound D7S6S10]: the “Absolute mRNA transfection efficiency” value is on record as 2.7%.

Regarding `CCCCCCCCCCCSc1nc(NCCN(CC)CC)nc(SCCCCCC)n1` [Compound D7S6S11], the “Absolute mRNA transfection efficiency” value is reported as 0.5%.

As to `CCCCCCCCCCCCSc1nc(NCCN(CC)CC)nc(SCCCCCC)n1` [Compound D7S6S12], the “Absolute mRNA transfection efficiency” value came to 8.1%.

In the case of `CCCCCCCCCCCCCCSc1nc(NCCN(CC)CC)nc(SCCCCCC)n1` [Compound D7S6S14], the “Absolute mRNA transfection efficiency” value was 3.8%.

Regarding `CCCCCCCCCCCCCCCSc1nc(NCCN(CC)CC)nc(SCCCCCC)n1` [Compound D7S6S15], the “Absolute mRNA transfection efficiency” value was 1.3%.

On to `CCCCCCCCCCCCCCCCSc1nc(NCCN(CC)CC)nc(SCCCCCC)n1` [Compound D7S6S16], for which the “Absolute mRNA transfection efficiency” value was determined as 2.3%.

Regarding `CCCCCCCCCCCCCCCCCCSc1nc(NCCN(CC)CC)nc(SCCCCCC)n1` [Compound D7S6S18], the “Absolute mRNA transfection efficiency” value was 9.5%.

On to `CCCCCCCSc1nc(NCCCCCC)nc(NCCN(CC)CC)n1` [Compound D7S7N6], for which the “Absolute mRNA transfection efficiency” value was found to be 2.3%.

For the compound `CCCCCCCNc1nc(NCCN(CC)CC)nc(SCCCCCCC)n1` [Compound D7S7N7], the “Absolute mRNA transfection efficiency” value was 3.9%.

Turning to `CCCCCCCCNc1nc(NCCN(CC)CC)nc(SCCCCCCC)n1` [Compound D7S7N8], the “Absolute mRNA transfection efficiency” value was determined as 3.5%.

Turning to `CCCCCCCCCNc1nc(NCCN(CC)CC)nc(SCCCCCCC)n1` [Compound D7S7N9], the “Absolute mRNA transfection efficiency” value amounted to 10.5%.

For `CCCCCCCCCCCNc1nc(NCCN(CC)CC)nc(SCCCCCCC)n1` [Compound D7S7N11], the “Absolute mRNA transfection efficiency” value was found to be 11.1%.
